From patent US8431593B2, “Heteroaryl amide derivatives” (H. Lundbeck A/S, priority 2006, dated 2013)

The compounds below were run against T1, P2X7 receptor (Homo sapiens, UniProt Q99572) (assay: P2X7 calcium mobilization assay, high throughput, antagonist activity (Example 4A)). Conditions: 50% decrease in the fluorescence response of cells exposed to 80 μM of 2′(3′)-O-(4-benzoyl-benzoyl)adenosine 5′-triphosphate; Example 4A; read-out: IC50.
T1 construct: host or cells: SH-SY5Y
T1 sequence (Q99572 1-595): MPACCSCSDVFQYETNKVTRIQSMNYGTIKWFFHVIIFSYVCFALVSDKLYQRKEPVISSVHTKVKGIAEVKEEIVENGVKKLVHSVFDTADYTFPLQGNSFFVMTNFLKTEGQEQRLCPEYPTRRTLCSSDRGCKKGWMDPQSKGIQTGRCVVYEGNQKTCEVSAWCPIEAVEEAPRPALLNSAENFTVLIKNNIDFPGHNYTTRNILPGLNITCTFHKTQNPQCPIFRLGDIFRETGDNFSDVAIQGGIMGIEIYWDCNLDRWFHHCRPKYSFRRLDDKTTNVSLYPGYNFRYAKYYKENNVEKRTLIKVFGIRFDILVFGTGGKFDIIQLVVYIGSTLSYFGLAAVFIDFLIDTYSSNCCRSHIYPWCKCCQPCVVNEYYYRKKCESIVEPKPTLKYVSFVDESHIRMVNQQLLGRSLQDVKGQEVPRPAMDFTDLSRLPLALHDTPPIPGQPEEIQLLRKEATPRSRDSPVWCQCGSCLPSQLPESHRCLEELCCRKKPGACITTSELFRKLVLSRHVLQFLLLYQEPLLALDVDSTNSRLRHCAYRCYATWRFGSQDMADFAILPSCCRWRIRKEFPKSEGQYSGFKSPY
Assay type: cell-based
Summary of the method: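 Antagonism was measured as calcium fluorescence (FLIPR Tetra) in cells seeded one day earlier at 100,000/well, loaded with dye for 1 h and exposed to compound for 1 h at room temperature before agonist. Peak RFU, minus the no-agonist background, was referenced to the mean of the agonist wells.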
`O=C(NCC12CC3CC(CC(C3)C1)C2)c1cccc2nc(C(=O)N3CCC(N4CCCC4)C3)cn12` (stereo not drawn) [Compound 719, N-(adamantan-1-ylmethyl)-2-(1,3′-bipyrrolidin-1′-ylcarbonyl)imidazo [1,2-a]pyridine-5-carboxamide] gave an IC50 of under 2000 nM. `COCCN(C)C1CCN(C(=O)c2cn3c(C(=O)NCC45CC6CC(CC(C6)C4)C5)cccc3n2)CC1` [Compound 720, N-(adamantan-1-ylmethyl)-2-({4-[(2-methoxyethyl)(methyl)amino]piperidin-1-yl}carbonyl)imidazo[l, 2-a]pyridine-5-carboxamide] showed an IC50 of under 2000 nM. With `O=C(NCC12CC3CC(CC(C3)C1)C2)c1cccc2nc(C(=O)N3CCN(C4CCOCC4)CC3)cn12` [Compound 721, N-(adamantan-1-ylmethyl)-2-{[4-(tetrahydro-2H-pyran-4-yl)piperazin-1-yl]carbonyl}imidazo[1,2-a]pyridine-5-carboxamide] the IC50 was under 2000 nM. For `Cn1ncc2c1CCN(C(=O)c1cn3c(C(=O)NCC45CC6CC(CC(C6)C4)C5)cccc3n1)C2` [Compound 723, N-(adamantan-1-ylmethyl)-2-[(1-methyl-1,4,6,7-tetrahydro-5H-pyrazolo[4,3-c]pyridin-5-yl)carbonyl]imidazo[1,2-a]pyridine-5-carboxamide], the IC50 was under 2000 nM. `N[C@@H]1CCCN(C(=O)c2cn3c(C(=O)NCC45CC6CC(CC(C6)C4)C5)cccc3n2)C1` [Compound 724, N-(adamantan-1-ylmethyl)-2-{[(3R)-3-aminopiperidin-1-yl]carbonyl}imidazo[1,2-a]pyridine-5-carboxamide] gave an IC50 of under 2000 nM. Work on `N[C@@H]1CCN(C(=O)c2cn3c(NC(=O)CC45CC6CC(CC(C6)C4)C5)cccc3n2)C1` [Compound 725, 2-adamantan-1-yl-N-(2-{[(3R)-3-aminopyrrolidin-1-yl]carbonyl}imidazo[1,2-a]pyridin-5-yl)acetamide] yielded an IC50 of under 2000 nM. With `O=C(NCC12CC3CC(CC(C3)C1)C2)c1cccc2nc(CC(=O)N3CC[C@@H](NCCO)C3)cn12` [Compound 726, N-(adamantan-1-ylmethyl)-2-(2-{(3R)-3-[(2-hydroxyethyl)amino]pyrrolidin-1-yl}-2-oxoethyl) imidazo[1,2-a]pyridine-5-carboxamide] the IC50 was under 2000 nM. Work on `O=C(NCC12CC3CC(CC(C3)C1)C2)c1cccc2nc(Cn3cnnn3)cn12` [Compound 727, N-(adamantan-1-ylmethyl)-2-(1H-tetrazol-1-ylmethyl) imidazo[1,2-a]pyridine-5-carboxamide] yielded an IC50 of under 2000 nM. `CCOC(=O)C(Cc1cn2c(C(=O)NCC34CC5CC(CC(C5)C3)C4)cccc2n1)C(=O)OC(C)(C)C` (stereo not drawn) [Compound 728, tert-butyl ethyl ({5-[(adamantan-1-ylmethyl)carbamoyl]imidazo[1,2-a]pyridin-2-yl}methyl)malonate] gave an IC50 of under 2000 nM. Work on `CC(C)CC(CNC(=O)c1cccc2nc(Cn3ccccc3=O)cn12)c1cccnc1` (stereo not drawn) [Compound 729, N-(4-methyl-2-pyridin-3-ylpentyl)-2-[(2-oxopyridin-1(2H)-yl)methyl] imidazo[1,2-a]pyridine-5-carboxamide] yielded an IC50 of under 2000 nM. With `O=C(NCC12CC3CC(CC(C3)C1)C2)c1cccc2nc(C(Cc3cccnc3)C(=O)O)cn12` (stereo not drawn) [Compound 730, 2-{5-[(adamantan-1-ylmethyl)carbamoyl]imidazo[1,2-a]pyridin-2-yl}-3-pyridin-3-ylpropanoic acid] the IC50 was under 2000 nM. Work on `CC(C)(Cc1cn2c(C(=O)NCC34CC5CC(CC(C5)C3)C4)cccc2n1)C(=O)O` [Compound 731, 3-{5-[(adamantan-1-ylmethyl)carbamoyl]imidazo[1,2-a]pyridin-2-yl}-2,2-dimethylpropanoic acid] yielded an IC50 of under 2000 nM. Compound `O=C(NCC12CC3CC(CC(C3)C1)C2)c1cccc2nc(C(Cc3ccccn3)C(=O)O)cn12` (stereo not drawn) [Compound 732, 2-{5-[(adamantan-1-ylmethyl)carbamoyl]imidazo[1,2-a]pyridin-2-yl}-3-pyridin-2-ylpropanoic acid] has an IC50 of under 2000 nM. `O=C(NCC12CC3CC(CC(C3)C1)C2)c1cccc2nc(CC3(C(=O)O)SCCS3)cn12` [Compound 733, 2-({5-[(adamantan-1-ylmethyl)carbamoyl]imidazo[1,2-a]pyridin-2-yl}methyl)-1,3-dithiolane-2-carboxylic acid] gave an IC50 of under 2000 nM. With `O=C(NCC12CC3CC(CC(C3)C1)C2)c1cccc2nc(C(Cc3ccncc3)C(=O)O)cn12` (stereo not drawn) [Compound 734, 2-{5-[(adamantan-1-ylmethyl)carbamoyl]imidazo[1,2-a]pyridin-2-yl}-3-pyridia-4-ylpropanoic acid] the IC50 was under 2000 nM. `CCOC(=O)C(Cc1ccncc1)c1cn2c(C(=O)NCC34CC5CC(CC(C5)C3)C4)cccc2n1` (stereo not drawn) [Compound 735, ethyl 2-{5-[(adamantan-1-ylmethyl)carbamoyl]imidazo[1,2-a]pyridin-2-yl}-3-pyridin-4-ylpropanoate] showed an IC50 of under 2000 nM. With `CCOC(=O)C(Cc1ccccn1)c1cn2c(C(=O)NCC34CC5CC(CC(C5)C3)C4)cccc2n1` (stereo not drawn) [Compound 736, ethyl 2-{5-[(adamantan-1-ylmethyl)carbamoyl]imidazo[1,2-a]pyridin-2-yl}-3-pyridin-2-ylpropanoate] the IC50 was under 2000 nM. For `O=C(O)c1nnnn1Cc1cn2c(C(=O)NCC34CC5CC(CC(C5)C3)C4)cccc2n1` [Compound 737, 1-({5-[(adamantan-1-ylmethyl)carbamoyl]imidazo[1,2-a]pyridin-2-yl}methyl)-1H-tetrazole-5-carboxylic acid], the IC50 was under 2000 nM. Work on `CC(C)CC(CNC(=O)c1cccc2nc(CN3CC[C@@H](N)C3)cn12)C1CCCCC1` (stereo partly drawn) [Compound 739, 2-[(3-aminopyrrolidin-1-yl)methyl]-N-(2-cyclohaxyl-4-methylpentyl)imidazo [1,2-a]pyridine-5-carboxamide] yielded an IC50 of under 2000 nM. In the case of `CN(C)C1CCCN(C(=O)Cc2cn3c(C(=O)NCC45CC6CC(CC(C6)C4)C5)cccc3n2)C1` (stereo not drawn) [Compound 740, N-(adamantan-1-ylmethyl)-2-{2-[3-(dimethylamino)piperidin-1-yl]-2-oxoethyl}imidazo[1,2-a]pyridine-5-carboxamide], the IC50 is reported as under 2000 nM. Compound `CC(COS(C)(=O)=O)c1cn2c(C(=O)NCC34CC5CC(CC(C5)C3)C4)cccc2n1` (stereo not drawn) [Compound 741, 2-{5-[(adamantan-1-ylmethyl)carbamoyl]imidazo[1,2-a]pyridin-2-yl}propyl methanesulfonate] has an IC50 of under 2000 nM. Compound `CC(C)N[C@@H]1CCCN(C(=O)Cc2cn3c(C(=O)NCC45CC6CC(CC(C6)C4)C5)cccc3n2)C1` [Compound 742, N-(adamantan-1-ylmethyl)-2-{2-[(3R)-3-(isopropylamino)piperidin-1-yl]-2-oxoethyl}imidazo[1,2-a]pyridine-5-carboxamide] has an IC50 of under 2000 nM. With `CC(C)CC(CNC(=O)c1cccc2nc(CSCCN)cn12)c1cccnc1` (stereo not drawn) [Compound 744, 2-{[(2-aminoethyl)thio]methyl}-N-(4-methyl-2-pyridin-3-ylpentyl)imidazo [1,2-a]pyridine-5-carboxamide] the IC50 was under 2000 nM. With `CC(C)N[C@@H]1CCCN(C(=O)c2cn3c(C(=O)NCC45CC6CC(CC(C6)C4)C5)cccc3n2)C1` [Compound 745, N-(adamantan-1-ylmethyl)-2-{[(3R)-3-(isopropylamino)piperidin-1-yl]carbonyl}imidazo[1,2-a]pyridine-5-carboxamide] the IC50 was under 2000 nM. `CC(C)CC(CNC(=O)c1cccc2nc(C(=O)N3CC[C@@H](N)C3)cn12)c1cccnc1` (stereo partly drawn) [Compound 746, 2-[(3-aminopyrrolidin-1-yl)carbonyl]-N-(4-methyl-2-pyridin-3-ylpentyl) imidazo[1,2-a]pyridine-5-carboxamide] gave an IC50 of under 2000 nM. `O=C(NCC12CC3CC(CC(C3)C1)C2)c1cccc2nc(C(=O)N3CC[C@@H](NCCO)C3)cn12` [Compound 747, N-(adamantan-1-ylmethyl)-2-({3-[(2-hydroxyethyl)amino]pyrrolidin-1-yl}carbonyl)imidazo[1,2-a]pyridine-5-carboxamide] showed an IC50 of under 2000 nM. With `CC(CC#N)c1cn2c(C(=O)NCC34CC5CC(CC(C5)C3)C4)cccc2n1` (stereo not drawn) [Compound 748, N-(adamantan-1-ylmethyl)-2-(2-cyano-1-methylethyl) imidazo[1,2-a]pyridine-5-carboxamide] the IC50 was under 2000 nM. For `CC(C(=O)N1CCC[C@@H](N)C1)c1cn2c(C(=O)NCC34CC5CC(CC(C5)C3)C4)cccc2n1` (stereo partly drawn) [Compound 751, N-(adamantan-1-ylmethyl)-2-[2-(3-aminopiperidin-1-yl)-1-methyl-2-oxoethyl]imidazo [1,2-a]pyridine-5-carboxamide], the IC50 was under 2000 nM. `CC(C(=O)N1CC[C@@H](N)C1)c1cn2c(C(=O)NCC34CC5CC(CC(C5)C3)C4)cccc2n1` (stereo partly drawn) [Compound 752, N-(adamantan-1-ylmethyl)-2-[2-(3-aminopyrrolidin-1-yl)-1-methyl-2-oxoethyl]imidazo [1,2-a]pyridine-5-carboxamide] gave an IC50 of under 2000 nM. In the case of `CN(C)[C@@H]1CCN(C(=O)CCc2cn3c(C(=O)NCC45CC6CC(CC(C6)C4)C5)cccc3n2)C1` [Compound 753, N-(adamantan-1-ylmethyl)-2-{3-[(3R)-3-(dimethylamino)pyrrolidin-1-yl]-3-oxopropyl}imidazo [1,2-a)pyridine-5-carboxamide], the IC50 is reported as under 2000 nM.
